# “Also recorded” adds a separate entry of the source.
# Test system: patients with advanced myeloid malignancies
# Experiment: Phase 1 safety: adverse events (NCIC-CTCAE version 3.0)
# Type: in vivo, human
# Description: At screening/baseline, patients underwent a medical history, physical examination, vital sign assessment, ECOG PS assessment, electrocardiogram, and assessment of hematologic parameters and blood chemistry. Hematology/blood chemistry, physical examinations, and vital sign assessments were performed throughout treatment. Toxicity was assessed using the National Cancer Institute Common Terminology Criteria for Adverse Events (NCIC-CTCAE), version 3.0, with relationship to treatment assigned by the investigator and were recorded from the first dose of pacritinib until 30 days after the last dose. Bone marrow biopsy and/or aspirate samples were drawn at baseline, on day 1 of cycle 4 and cycle 10, as clinically indicated, and at the termination visit. Disease response and progression were determined using the relevant International Working Group (IWG) criteria.
# The efficacy-evaluable population included those patients with a baseline and corresponding follow-up value. The safety population included all enrolled patients who received ≥1 dose of pacritinib.
# [1] = phase 1, 500 mg QD cohort of seven
# [2] = phase 1, all patients n = 43, Grade 1/2
# [3] = phase 1, all patients n = 43, Grade 3/4
smiles,measurement,setting,value
"C1=C/COCc2cc(ccc2OCCN2CCCC2)Nc2nccc(n2)-c2cccc(c2)COC/1 [pacritinib, 11-(2-pyrrolidin-1-yl-ethoxy)-14,19-dioxa-5,7,26-triaza-tetracyclo[19.3.1.1(2,6). 1(8,12)]heptacosa-1(25),2(26),3,5,8,10,12(27),16,21,23-decaene]",Treatment-emergent AE: Petechiae,"phase 1, 400 mg, n = 6",0 n (%)
same,Treatment-emergent AE: Pyrexia,"phase 1, 400 mg, n = 6",2 (33.3) n (%)
same,Treatment-emergent AE: Skin lesion,"phase 1, 400 mg, n = 6",0 n (%)
same,Treatment-emergent AE: Thrombocytopenia,"phase 1, 400 mg, n = 6",2 (33.3) n (%)
same,Treatment-emergent AE: Upper respiratory tract infection,"phase 1, 400 mg, n = 6",0 n (%)
same,Treatment-emergent AE: Vomiting,"phase 1, 400 mg, n = 6",3 (50.0) n (%)
same,Patients who discontinued treatment due to AEs,[1],two
same,Patients who experienced a serious AE,[1],three
same,Patients who required dose interruptions,[1],three
same,Patients who required dose reductions,[1],three
same,Treatment-emergent AE: Abdominal distension,"phase 1, 500 mg, n = 7",1 (14.3) n (%)
same,Treatment-emergent AE: Abdominal pain,"phase 1, 500 mg, n = 7",0 n (%)
same,Treatment-emergent AE: Anemia,"phase 1, 500 mg, n = 7",2 (28.6) n (%)
same,Treatment-emergent AE: Any AE,"phase 1, 500 mg, n = 7",7 (100.0) n (%)
same,Treatment-emergent AE: Asthenia,"phase 1, 500 mg, n = 7",1 (14.3) n (%)
same,Treatment-emergent AE: Back pain,"phase 1, 500 mg, n = 7",1 (14.3) n (%)
same,Treatment-emergent AE: Cardiac murmur,"phase 1, 500 mg, n = 7",1 (14.3) n (%)
same,Treatment-emergent AE: Chills,"phase 1, 500 mg, n = 7",1 (14.3) n (%)
same,Treatment-emergent AE: Constipation,"phase 1, 500 mg, n = 7",1 (14.3) n (%)
same,Treatment-emergent AE: Cough,"phase 1, 500 mg, n = 7",0 n (%)
same,Treatment-emergent AE: Decreased appetite,"phase 1, 500 mg, n = 7",0 n (%)
same,Treatment-emergent AE: Dehydration,"phase 1, 500 mg, n = 7",1 (14.3) n (%)
same,Treatment-emergent AE: Diarrhea,"phase 1, 500 mg, n = 7",7 (100.0) n (%)
same,Treatment-emergent AE: Dizziness,"phase 1, 500 mg, n = 7",1 (14.3) n (%)
same,Treatment-emergent AE: Dyspnea,"phase 1, 500 mg, n = 7",1 (14.3) n (%)
same,Treatment-emergent AE: Edema peripheral,"phase 1, 500 mg, n = 7",2 (28.6) n (%)
same,Treatment-emergent AE: Epistaxis,"phase 1, 500 mg, n = 7",0 n (%)
same,Treatment-emergent AE: Fatigue,"phase 1, 500 mg, n = 7",3 (42.9) n (%)
same,Treatment-emergent AE: Hyperbilirubinemia,"phase 1, 500 mg, n = 7",0 n (%)
same,Treatment-emergent AE: Hyperuricemia,"phase 1, 500 mg, n = 7",1 (14.3) n (%)
same,Treatment-emergent AE: Insomnia,"phase 1, 500 mg, n = 7",1 (14.3) n (%)
same,Treatment-emergent AE: Nausea,"phase 1, 500 mg, n = 7",5 (71.4) n (%)
same,Treatment-emergent AE: Neutropenia,"phase 1, 500 mg, n = 7",0 n (%)
same,Treatment-emergent AE: Night sweats,"phase 1, 500 mg, n = 7",1 (14.3) n (%)
same,Treatment-emergent AE: Pain in extremity,"phase 1, 500 mg, n = 7",0 n (%)
same,Treatment-emergent AE: Petechiae,"phase 1, 500 mg, n = 7",1 (14.3) n (%)
same,Treatment-emergent AE: Pyrexia,"phase 1, 500 mg, n = 7",2 (28.6) n (%)
same,Treatment-emergent AE: Skin lesion,"phase 1, 500 mg, n = 7",0 n (%)
same,Treatment-emergent AE: Thrombocytopenia,"phase 1, 500 mg, n = 7",1 (14.3) n (%)
same,Treatment-emergent AE: Upper respiratory tract infection,"phase 1, 500 mg, n = 7",0 n (%)
same,Treatment-emergent AE: Vomiting,"phase 1, 500 mg, n = 7",3 (42.9) n (%)
same,Treatment-emergent AE: Abdominal distension,"phase 1, 600 mg, n = 6",2 (33.3) n (%)
same,Treatment-emergent AE: Abdominal pain,"phase 1, 600 mg, n = 6",1 (16.7) n (%)
same,Treatment-emergent AE: Anemia,"phase 1, 600 mg, n = 6",3 (50.0) n (%)
same,Treatment-emergent AE: Any AE,"phase 1, 600 mg, n = 6",6 (100.0) n (%)
same,Treatment-emergent AE: Asthenia,"phase 1, 600 mg, n = 6",2 (33.3) n (%)
same,Treatment-emergent AE: Back pain,"phase 1, 600 mg, n = 6",0 n (%)
same,Treatment-emergent AE: Cardiac murmur,"phase 1, 600 mg, n = 6",2 (33.3) n (%)
same,Treatment-emergent AE: Chills,"phase 1, 600 mg, n = 6",1 (16.7) n (%)
same,Treatment-emergent AE: Constipation,"phase 1, 600 mg, n = 6",1 (16.7) n (%)
same,Treatment-emergent AE: Cough,"phase 1, 600 mg, n = 6",0 n (%)
same,Treatment-emergent AE: Decreased appetite,"phase 1, 600 mg, n = 6",1 (16.7) n (%)
same,Treatment-emergent AE: Dehydration,"phase 1, 600 mg, n = 6",1 (16.7) n (%)
same,Treatment-emergent AE: Diarrhea,"phase 1, 600 mg, n = 6",6 (100.0) n (%)
same,Treatment-emergent AE: Dizziness,"phase 1, 600 mg, n = 6",1 (16.7) n (%)
same,Treatment-emergent AE: Dyspnea,"phase 1, 600 mg, n = 6",3 (50.0) n (%)
same,Treatment-emergent AE: Edema peripheral,"phase 1, 600 mg, n = 6",3 (50.0) n (%)
same,Treatment-emergent AE: Epistaxis,"phase 1, 600 mg, n = 6",1 (16.7) n (%)
same,Treatment-emergent AE: Fatigue,"phase 1, 600 mg, n = 6",1 (16.7) n (%)
same,Treatment-emergent AE: Hyperbilirubinemia,"phase 1, 600 mg, n = 6",0 n (%)
same,Treatment-emergent AE: Hyperuricemia,"phase 1, 600 mg, n = 6",3 (50.0) n (%)
same,Treatment-emergent AE: Insomnia,"phase 1, 600 mg, n = 6",0 n (%)
same,Treatment-emergent AE: Nausea,"phase 1, 600 mg, n = 6",4 (66.7) n (%)
same,Treatment-emergent AE: Neutropenia,"phase 1, 600 mg, n = 6",0 n (%)
same,Treatment-emergent AE: Night sweats,"phase 1, 600 mg, n = 6",1 (16.7) n (%)
same,Treatment-emergent AE: Pain in extremity,"phase 1, 600 mg, n = 6",1 (16.7) n (%)
same,Treatment-emergent AE: Petechiae,"phase 1, 600 mg, n = 6",0 n (%)
same,Treatment-emergent AE: Pyrexia,"phase 1, 600 mg, n = 6",2 (33.3) n (%)
same,Treatment-emergent AE: Skin lesion,"phase 1, 600 mg, n = 6",0 n (%)
same,Treatment-emergent AE: Thrombocytopenia,"phase 1, 600 mg, n = 6",1 (16.7) n (%)
same,Treatment-emergent AE: Upper respiratory tract infection,"phase 1, 600 mg, n = 6",0 n (%)
same,Treatment-emergent AE: Vomiting,"phase 1, 600 mg, n = 6",3 (50.0) n (%)
same,Treatment-emergent AE: Abdominal distension,[2],9 (20.9) n (%)
same,Treatment-emergent AE: Abdominal pain,[2],6 (14.0) n (%)
same,Treatment-emergent AE: Anemia,[2],3 (7.0) n (%)
same,Treatment-emergent AE: Any AE,[2],8 (18.6) n (%)
same,Treatment-emergent AE: Asthenia,[2],6 (14.0) n (%)
same,Treatment-emergent AE: Back pain,[2],7 (16.3) n (%)
same,Treatment-emergent AE: Cardiac murmur,[2],6 (14.0) n (%)
same,Treatment-emergent AE: Chills,[2],5 (11.6) n (%)
same,Treatment-emergent AE: Constipation,[2],11 (25.6) n (%)
same,Treatment-emergent AE: Cough,[2],5 (11.6) n (%)
same,Treatment-emergent AE: Decreased appetite,[2],8 (18.6) n (%)
same,Treatment-emergent AE: Dehydration,[2],5 (11.6) n (%)
same,Treatment-emergent AE: Diarrhea,[2],28 (65.1) n (%)
same,Treatment-emergent AE: Dizziness,[2],6 (14.0) n (%)
same,Treatment-emergent AE: Dyspnea,[2],9 (20.9) n (%)
same,Treatment-emergent AE: Edema peripheral,[2],10 (23.3) n (%)
same,Treatment-emergent AE: Epistaxis,[2],7 (16.3) n (%)
same,Treatment-emergent AE: Fatigue,[2],9 (20.9) n (%)
same,Treatment-emergent AE: Hyperbilirubinemia,[2],5 (11.6) n (%)
same,Treatment-emergent AE: Hyperuricemia,[2],5 (11.6) n (%)
same,Treatment-emergent AE: Insomnia,[2],7 (16.3) n (%)
same,Treatment-emergent AE: Nausea,[2],19 (44.2) n (%)
same,Treatment-emergent AE: Neutropenia,[2],2 (4.7) n (%)
same,Treatment-emergent AE: Night sweats,[2],6 (14.0) n (%)
same,Treatment-emergent AE: Pain in extremity,[2],5 (11.6) n (%)
same,Treatment-emergent AE: Petechiae,[2],5 (11.6) n (%)
same,Treatment-emergent AE: Pyrexia,[2],9 (20.9) n (%)
same,Treatment-emergent AE: Skin lesion,[2],5 (11.6) n (%)
same,Treatment-emergent AE: Thrombocytopenia,[2],2 (4.7) n (%)
same,Treatment-emergent AE: Upper respiratory tract infection,[2],5 (11.6) n (%)
same,Treatment-emergent AE: Vomiting,[2],16 (37.2) n (%)
same,Treatment-emergent AE: Abdominal distension,[3],0 n (%)
same,Treatment-emergent AE: Abdominal pain,[3],1 (2.3) n (%)
same,Treatment-emergent AE: Anemia,[3],7 (16.3) n (%)
same,Treatment-emergent AE: Any AE,[3],35 (81.4) n (%)
same,Treatment-emergent AE: Asthenia,[3],2 (4.7) n (%)
same,Treatment-emergent AE: Back pain,[3],0 n (%)
same,Treatment-emergent AE: Cardiac murmur,[3],0 n (%)
same,Treatment-emergent AE: Chills,[3],0 n (%)
same,Treatment-emergent AE: Constipation,[3],0 n (%)
same,Treatment-emergent AE: Cough,[3],0 n (%)
same,Treatment-emergent AE: Decreased appetite,[3],0 n (%)
same,Treatment-emergent AE: Dehydration,[3],0 n (%)
same,Treatment-emergent AE: Diarrhea,[3],3 (7.0) n (%)
same,Treatment-emergent AE: Dizziness,[3],0 n (%)
same,Treatment-emergent AE: Dyspnea,[3],0 n (%)
same,Treatment-emergent AE: Edema peripheral,[3],2 (4.7) n (%)
same,Treatment-emergent AE: Epistaxis,[3],1 (2.3) n (%)
same,Treatment-emergent AE: Fatigue,[3],4 (9.3) n (%)
same,Treatment-emergent AE: Hyperbilirubinemia,[3],0 n (%)
same,Treatment-emergent AE: Hyperuricemia,[3],1 (2.3) n (%)
same,Treatment-emergent AE: Insomnia,[3],0 n (%)
same,Treatment-emergent AE: Nausea,[3],0 n (%)
same,Treatment-emergent AE: Neutropenia,[3],3 (7.0) n (%)
same,Treatment-emergent AE: Night sweats,[3],0 n (%)
same,Treatment-emergent AE: Pain in extremity,[3],0 n (%)
same,Treatment-emergent AE: Petechiae,[3],0 n (%)
same,Treatment-emergent AE: Pyrexia,[3],3 (7.0) n (%)
same,Treatment-emergent AE: Skin lesion,[3],0 n (%)
same,Treatment-emergent AE: Thrombocytopenia,[3],6 (14.0) n (%)
same,Treatment-emergent AE: Upper respiratory tract infection,[3],0 n (%)
same,Treatment-emergent AE: Vomiting,[3],0 n (%)
same,SAE Management/Outcome,"phase 1, listing per patient and SAE",Fatal; also recorded: Dose not changed; recovered/resolved with sequelae; also recorded: Drug withdrawn; recovered/resolved with sequelae; also recorded: Drug interrupted; recovered/resolved with sequelae
same,Deaths attributed to AEs,"phase 1, n = 43",Seven
same,Discontinuations because of an AE considered treatment related,"phase 1, n = 43",three
same,Dose interruptions due to AEs,"phase 1, n = 43",18 patients
same,Dose reductions due to AEs,"phase 1, n = 43",9 patients
same,Grade 3/4 anemia,"phase 1, n = 43",16.3%
same,Grade 3/4 thrombocytopenia,"phase 1, n = 43",14.0%
same,Grade 3 treatment-related AEs,"phase 1, n = 43",20.9%
same,Grade 4 treatment-related AEs,"phase 1, n = 43",4.7%
same,Patients who died during study participation,"phase 1, n = 43",32.6%
same,Patients who discontinued pacritinib because of an AE,"phase 1, n = 43",Eight
same,Patients with SAEs,"phase 1, n = 43",44.2%
same,Patients with SAEs considered treatment related,"phase 1, n = 43",9.3%
same,Treatment-related AE: diarrhea,"phase 1, n = 43",65.1%
same,Treatment-related AE: nausea,"phase 1, n = 43",34.9%
same,Treatment-related AE: thrombocytopenia,"phase 1, n = 43",11.6%
same,Treatment-related AE: vomiting,"phase 1, n = 43",23.3%

# Source: publication PMC5146859, “Phase 1/2 study of pacritinib, a next generation JAK2/FLT3 inhibitor, in myelofibrosis or other myeloid malignancies” (Journal of Hematology & Oncology, 2016)
